Here are results for 38 compounds from ChEMBL document CHEMBL5385906, “Discovery of a Potent, Selective, and Orally Bioavailable Tool Compound for Probing the Role of Lysophosphatidic Acid Type 2 Receptor Antagonists in Fibrotic Disorders” (J Med Chem, 2023).

In data set [1] the target is Lysophosphatidic acid receptor 2 (Homo sapiens, UniProt Q9HBW0).
Description: Antagonist activity at human LPA2 receptor expressed in CHO cells assessed as inhibition of LPA-induced calcium mobilization pretreated for 15 mins followed by LPA stimulation by FLIPR analysis
Data set [2] has as its target Lysophosphatidic acid receptor 2 (Mus musculus, UniProt Q9JL06). The experiment in a line: Antagonist activity at mouse LPA2 receptor expressed in HeLa cells assessed as inhibition of LPA-induced calcium mobilization pretreated for 15 mins followed by LPA stimulation by FLIPR analysis. Format: functional, cell-based.
The target of data set [3] is Lysophosphatidic acid receptor 1 (Homo sapiens, UniProt Q92633).
Lysophosphatidic acid receptor 1, sequence (Q92633 whole entry): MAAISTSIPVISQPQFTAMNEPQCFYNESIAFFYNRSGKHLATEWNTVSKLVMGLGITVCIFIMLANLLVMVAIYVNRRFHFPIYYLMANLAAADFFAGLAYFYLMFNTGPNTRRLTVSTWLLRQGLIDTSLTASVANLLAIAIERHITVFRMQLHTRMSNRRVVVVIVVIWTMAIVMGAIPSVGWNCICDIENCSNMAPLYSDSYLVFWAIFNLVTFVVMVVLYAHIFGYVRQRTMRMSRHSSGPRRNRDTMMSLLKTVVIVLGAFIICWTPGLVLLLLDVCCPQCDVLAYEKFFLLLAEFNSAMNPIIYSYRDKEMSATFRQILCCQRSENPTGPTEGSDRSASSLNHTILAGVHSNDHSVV
Description: Antagonist activity at human LPA1 receptor expressed in CHO cells assessed as inhibition of LPA-induced calcium mobilization pretreated for 15 mins followed by LPA stimulation by FLIPR analysis
The nature of data set [4]: in vitro. To be noted: human, liver microsomes, CLH.
Description: Intrinsic clearance in human liver microsomes at 0.5 uM in presence of NADPH regenerating system measured for 45 mins per mg protein by LC-MS/MS analysis
Data set [5] in a line: in vitro. As to conditions: C57BL/6J, mouse, liver microsomes.
Description: Intrinsic clearance in C57BL/6J mouse liver microsomes at 0.5 uM in presence of NADPH regenerating system measured for 45 mins per mg protein by LC-MS/MS analysis

Lysophosphatidic acid receptor 2 (Mus musculus, UniProt Q9JL06), sequence (Q9JL06 whole entry): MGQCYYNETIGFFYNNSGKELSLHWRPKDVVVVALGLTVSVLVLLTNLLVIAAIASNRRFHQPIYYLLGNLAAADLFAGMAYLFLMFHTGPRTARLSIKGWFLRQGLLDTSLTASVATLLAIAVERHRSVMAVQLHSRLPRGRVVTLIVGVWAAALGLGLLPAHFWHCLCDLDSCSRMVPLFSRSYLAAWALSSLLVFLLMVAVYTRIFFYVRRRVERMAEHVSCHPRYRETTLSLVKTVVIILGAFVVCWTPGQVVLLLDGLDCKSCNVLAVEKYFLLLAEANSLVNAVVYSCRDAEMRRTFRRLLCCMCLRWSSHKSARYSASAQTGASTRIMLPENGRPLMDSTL
Lysophosphatidic acid receptor 2 (Homo sapiens, UniProt Q9HBW0), sequence (Q9HBW0 whole entry): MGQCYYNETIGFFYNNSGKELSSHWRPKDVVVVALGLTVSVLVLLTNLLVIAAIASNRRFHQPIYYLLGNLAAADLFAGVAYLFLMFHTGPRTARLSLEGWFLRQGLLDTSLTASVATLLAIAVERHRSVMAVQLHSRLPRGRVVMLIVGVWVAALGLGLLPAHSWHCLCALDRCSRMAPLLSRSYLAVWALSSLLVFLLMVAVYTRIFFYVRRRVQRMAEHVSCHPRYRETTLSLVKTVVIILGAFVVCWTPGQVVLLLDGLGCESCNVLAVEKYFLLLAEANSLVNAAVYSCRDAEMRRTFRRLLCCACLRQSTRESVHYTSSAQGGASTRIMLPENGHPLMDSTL

Take `C[C@@H](CN1CCN(S(=O)(=O)c2ccc(Cl)c(Cl)c2)CC1)Nc1ncnc2cnn(C)c12`: the IC50 in data set [1] was 17.4 µM.

In turn, `C[C@@H](CN1CCN(S(=O)(=O)c2ccc(Cl)c(Cl)c2)CC1)Nc1ncnc2cc[nH]c12` gave an IC50 in data set [1] of 15.8 µM.

As to `COC(=O)Nc1nc(C)c(S(=O)(=O)N2CCN(C[C@H](C)Nc3ncnc4c(C(F)(F)F)cccc34)CC2)s1`, in data set [1], the IC50 was 0.0447 µM.

In data set [1], `C[C@@H](CN1CCN(S(=O)(=O)c2ccc(Cl)c(Cl)c2)CC1)Nc1ncnc2cc(C(F)(F)F)ccc12` showed an IC50 of 18.2 µM.

With `COC(=O)Nc1nc(C)c(S(=O)(=O)N2CCN(C[C@H](C)Nc3ncnc4c(-c5ccc(F)c(CN(C)C)c5)cccc34)CC2)s1`, the IC50 in data set [2] (read-out: IC50) was 0.00646 µM; in data set [3], over 50.1 µM.

On to `COC(=O)Nc1nc(C)c(S(=O)(=O)N2CCN(C[C@H](C)Nc3ncnc4c(C(=O)N(C)C)cccc34)CC2)s1`, for which the IC50 in data set [2] (read-out: pIC50 (converted)) is 3.98 µM.

Compound `Cc1csc2c(N[C@@H](C)C(=O)N3CCN(S(=O)(=O)c4ccc(Cl)c(Cl)c4)CC3)ncnc12` displayed an IC50 in data set [3] of over 50.1 µM.

Compound `Cc1csc2c(N[C@@H](C)CN3CCN(S(=O)(=O)c4ccc(Cl)c(Cl)c4)CC34CC4)ncnc12` gave an IC50 in data set [1] of 9.33 µM.

In data set [1], `Cc1csc2c(NC3(CN4CCN(S(=O)(=O)c5ccc(Cl)c(Cl)c5)CC4)CC3)ncnc12` had an IC50 of 8.32 µM.

With `Cc1csc2c(N[C@@H](C)CN3CC4CC3CN4S(=O)(=O)c3ccc(Cl)c(Cl)c3)ncnc12` (stereo partly specified), the IC50 in data set [3] is 18.2 µM; in data set [1], 11.2 µM.

The compound `Cc1noc(-c2ccc(S(=O)(=O)N3CCN(C[C@H](C)Nc4ncnc5c(C(F)(F)F)cccc45)CC3)s2)c1C` showed an IC50 in data set [1] of 0.00575 µM.

The compound `Cc1csc2c(N[C@@H](C)CNC3CCC(NS(=O)(=O)c4ccc(Cl)c(Cl)c4)CC3)ncnc12` (stereo partly specified) gave an IC50 in data set [1] of 35.5 µM.

Compound `Cc1noc(-c2ccc(S(=O)(=O)N3CCN(C[C@H](C)Nc4ncnc5c(C)csc45)CC3)s2)c1C` gave an IC50 in data set [1] of 0.0437 µM.

As for `CC(=O)Nc1ccc(S(=O)(=O)N2CCN(C[C@H](C)Nc3ncnc4c(C)csc34)CC2)cn1`, the IC50 is over 50.1 µM in data set [3] and 13.8 µM in data set [1].

`Cc1csc2c(N[C@@H](C)CNC3CCN(S(=O)(=O)c4ccc(Cl)c(Cl)c4)CC3)ncnc12`: in data set [1], the IC50 was 17 µM.

As to `CC(=O)Nc1ccc(S(=O)(=O)N2CCN(C[C@H](C)Nc3ncnc4c(C)csc34)CC2)cc1Cl`, the IC50 in data set [1] was 4.07 µM.

On to `C[C@@H](CN1CCN(S(=O)(=O)c2ccc(Cl)c(Cl)c2)CC1)Nc1ncnc2ccn(C)c12`, for which, in data set [1], the IC50 was 8.13 µM.

As to `Cc1csc2c(N3CCC[C@H]3CN3CCN(S(=O)(=O)c4ccc(Cl)c(Cl)c4)CC3)ncnc12`, the IC50 in data set [1] is 30.2 µM.

Turning to `Cc1csc2c(N[C@@H](C)CN3CCN(S(=O)(=O)C(=O)c4ccc(Cl)c(Cl)c4)CC3)ncnc12`, the IC50 in data set [1] was 16.2 µM.

For the compound `COC(=O)Nc1nc(C)c(S(=O)(=O)N2CCN(C[C@H](C)Nc3ncnc4c(-c5cccnc5)cccc34)CC2)s1`, the values for the IC50 in data set [2] (read-out: pIC50 (converted)) and in data set [3] were 0.00257 µM and over 5.01 µM, respectively.

With `COC(=O)Nc1nc(C)c(S(=O)(=O)N2CCN(C[C@H](C)Nc3ncnc4c(-c5ccc(CN6CCCC6)cc5)cccc34)CC2)s1`, in data set [2] (read-out: pIC50 (converted)), the IC50 is 0.0174 µM.

As for `Cc1csc2c(N[C@@H](C)CN3CCC(NS(=O)(=O)c4ccc(Cl)c(Cl)c4)CC3)ncnc12`, the IC50 in data set [1] was 6.61 µM.

In data set [1], `CC[C@@H](CN1CCN(S(=O)(=O)c2ccc(Cl)c(Cl)c2)CC1)Nc1ncnc2c(C)csc12` had an IC50 of 6.17 µM.

In data set [1], `CC(=O)Nc1ncc(S(=O)(=O)N2CCN(C[C@H](C)Nc3ncnc4c(C)csc34)CC2)s1` showed an IC50 of 4.57 µM.

In data set [1], `Cc1csc2c(N[C@@H](C)CN3CCN(S(=O)(=O)C4CCCCC4)CC3)ncnc12` had an IC50 of 25.1 µM.

`Cc1csc2c(N[C@@H](C)CN3CCN(S(=O)(=O)c4ccc(F)c(Cl)c4)CC3)ncnc12` gave an IC50 in data set [1] of 0.562 µM.

`Cc1ccc(S(=O)(=O)N2CCN(C[C@H](C)Nc3ncnc4c(C)csc34)CC2)cc1C` showed an IC50 in data set [1] of 2.82 µM.

`Cc1csc2c(N[C@@H](C)CN3CCN(S(=O)(=O)c4ccc(Cl)cc4Cl)CC3)ncnc12` gave an IC50 in data set [1] of 3.63 µM.

Compound `Cc1csc2c(N[C@@H](C)CN3CCN(S(=O)(=O)c4ccccc4)CC3)ncnc12` had an IC50 in data set [1] of 11.2 µM.

Regarding `Cc1cc2ncnc(NC(C)CN3CCN(S(=O)(=O)c4ccc(Cl)c(Cl)c4)CC3)c2s1` (racemic), the IC50 was 10.5 µM in data set [3] and 13.5 µM in data set [1].

Consider `CC(CN1CCN(S(=O)(=O)c2ccc(Cl)c(Cl)c2)CC1)Nc1ncnc2c1ncn2C` (racemic), for which the IC50 in data set [3] is 20.4 µM; in data set [1], 19.1 µM.

`CC(CN1CCN(S(=O)(=O)c2ccc(Cl)c(Cl)c2)CC1)Nc1ncnc2c(-c3ccccc3)csc12` (racemic): the microsomal CLint at 0.75 h, 0.5 µM in “in vitro [4]” came to 228 µL/min/mg; in “in vitro [5]”, 270 µL/min/mg. Besides, the results for the IC50 in data set [3] and in data set [1] were over 50.1 µM and 3.47 µM, respectively.

For `CC(CN1CCN(S(=O)(=O)c2ccc(Cl)c(Cl)c2)CC1)Nc1ccncn1` (racemic), in data set [3], the IC50 is 21.9 µM.

As to `Cc1csc2c(NC(C)CN3CCN(S(=O)(=O)c4ccc(Cl)c(Cl)c4)CC3)cccc12` (racemic), the IC50 in data set [1] is over 50.1 µM.

In data set [1], `Cc1csc2c(NCC(C)N3CCN(S(=O)(=O)c4ccc(Cl)c(Cl)c4)CC3)ncnc12` (stereo in doubt; 6a) gave an IC50 of 14.5 µM.

In the case of `Cc1csc2c(NCC(C)N3CCN(S(=O)(=O)c4ccc(Cl)c(Cl)c4)CC3)ncnc12` (stereo in doubt; 6b), the IC50 in data set [1] is 6.17 µM.

With `Cc1cccc2c(NC(C)CN3CCN(S(=O)(=O)c4ccc(Cl)c(Cl)c4)CC3)ncnc12` (stereo in doubt; 42a), the IC50 in data set [3] and in data set [1] was over 50.1 µM throughout.

In the case of `Cc1cccc2c(NC(C)CN3CCN(S(=O)(=O)c4ccc(Cl)c(Cl)c4)CC3)ncnc12` (stereo in doubt; 42b), the microsomal CLint at 0.75 h, 0.5 µM in the data set “in vitro [4]” worked out at 789 µL/min/mg; in “in vitro [5]”, 698 µL/min/mg. In addition, the IC50 in data set [3] was 12.6 µM; in data set [1] it was 4.17 µM.
